Laboratory results as given in PMC7441158 (Nature Communications, 2020).

How the values were obtained:
[1] = biological target: T1, VIP receptor 1 (VPAC1) (Homo sapiens, UniProt P32241); test: cAMP assay, COS-7 cells transiently expressing VPAC1; assay type: cell-based; conditions: for % receptor activation at 1µM agonist: VPAC1 + VIP, Suppl. fig 5a source data; for EC50: log(EC50) VPAC1 + VIP, log10 of EC50, COS-7 cells, cAMP, Hill = 1, top constrained to 100%
T1 sequence (P32241 31-457): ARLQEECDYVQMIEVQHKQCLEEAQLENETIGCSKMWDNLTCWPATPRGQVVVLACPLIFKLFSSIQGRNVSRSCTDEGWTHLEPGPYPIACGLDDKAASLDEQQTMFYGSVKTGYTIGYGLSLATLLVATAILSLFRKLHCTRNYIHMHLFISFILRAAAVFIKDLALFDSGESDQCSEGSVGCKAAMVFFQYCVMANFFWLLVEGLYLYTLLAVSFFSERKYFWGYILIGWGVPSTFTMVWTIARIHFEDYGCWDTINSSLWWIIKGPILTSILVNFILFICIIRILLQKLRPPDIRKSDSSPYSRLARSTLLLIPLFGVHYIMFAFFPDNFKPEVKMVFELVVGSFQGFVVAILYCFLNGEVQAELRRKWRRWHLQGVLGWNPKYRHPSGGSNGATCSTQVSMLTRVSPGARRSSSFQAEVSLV

[2] = biological target: T2, VIP receptor 2 (VPAC2) (Homo sapiens, UniProt P41587); test: cAMP assay, COS-7 cells transiently expressing VPAC2; assay type: cell-based; conditions: for % receptor activation at 1µM agonist: VPAC2 + VIP, Suppl. fig 5a source data; for EC50: log(EC50) VPAC 2 + VIP, log10 of EC50, COS-7 cells, cAMP, Hill = 1, top constrained to 100%
T2 sequence (P41587 24-438): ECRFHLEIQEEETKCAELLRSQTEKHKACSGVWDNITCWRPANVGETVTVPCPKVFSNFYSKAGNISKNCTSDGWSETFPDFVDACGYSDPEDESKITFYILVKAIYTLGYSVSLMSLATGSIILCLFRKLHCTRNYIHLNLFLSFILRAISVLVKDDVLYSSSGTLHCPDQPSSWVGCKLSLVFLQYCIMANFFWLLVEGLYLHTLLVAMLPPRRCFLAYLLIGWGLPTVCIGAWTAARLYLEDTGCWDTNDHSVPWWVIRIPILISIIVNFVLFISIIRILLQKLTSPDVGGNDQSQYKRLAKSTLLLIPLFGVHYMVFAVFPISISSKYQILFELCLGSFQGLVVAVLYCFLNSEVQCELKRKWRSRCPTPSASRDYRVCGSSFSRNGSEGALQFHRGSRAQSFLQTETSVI

[3] = independent experiment 1, duplicate determinations
[4] = independent experiment 2, duplicate determinations
[5] = independent experiment 3, duplicate determinations

Structure (SMILES)	% receptor activation at 1µM agonist ([1]; replicate 4)	EC50 [1, 3]	EC50 [1, 4]	EC50 [1, 5]	Efficacy raw data for Glucagon-receptors, VPAC1 + VIP ([1]; replicate 1)	Efficacy raw data for Glucagon-receptors, VPAC1 + VIP ([1]; replicate 2)	Efficacy raw data for Glucagon-receptors, VPAC1 + VIP ([1]; replicate 3)	% receptor activation at 1µM agonist ([2]; replicate 1)	% receptor activation at 1µM agonist ([2]; replicate 2)	% receptor activation at 1µM agonist ([2]; replicate 3)	% receptor activation at 1µM agonist ([2]; replicate 4)	% receptor activation at 1µM agonist ([2]; replicate 5)	% receptor activation at 1µM agonist ([2]; replicate 6)	EC50 [2, 3]	EC50 [2, 4]	EC50 [2, 5]	Efficacy raw data for Glucagon-receptors, VPAC2 + VIP ([2]; replicate 1)	Efficacy raw data for Glucagon-receptors, VPAC2 + VIP ([2]; replicate 2)	Efficacy raw data for Glucagon-receptors, VPAC2 + VIP ([2]; replicate 3)	% receptor activation at 1µM agonist ([1]; replicate 5)
CC[C@H](C)[C@H](NC(=O)[C@H](CO)NC(=O)[C@H](CC(N)=O)NC(=O)[C@H](CC(C)C)NC(=O)[C@H](Cc1ccc(O)cc1)NC(=O)[C@H](CCCCN)NC(=O)[C@H](CCCCN)NC(=O)[C@@H](NC(=O)[C@H](C)NC(=O)[C@H](CCSC)NC(=O)[C@H](CCC(N)=O)NC(=O)[C@H](CCCCN)NC(=O)[C@H](CCCNC(=N)N)NC(=O)[C@H](CC(C)C)NC(=O)[C@H](CCCNC(=N)N)NC(=O)[C@@H](NC(=O)[C@H](Cc1ccc(O)cc1)NC(=O)[C@H](CC(N)=O)NC(=O)[C@H](CC(=O)O)NC(=O)[C@@H](NC(=O)[C@H](Cc1ccccc1)NC(=O)[C@@H](NC(=O)[C@H](C)NC(=O)[C@H](CC(=O)O)NC(=O)[C@H](CO)NC(=O)[C@@H](N)Cc1c[nH]cn1)C(C)C)[C@@H](C)O[C@H]1O[C@H](CO)[C@H](O)[C@H](O)[C@H]1NC(C)=O)[C@@H](C)O)C(C)C)C(=O)N[C@@H](CC(C)C)C(=O)N[C@@H](CC(N)=O)C(N)=O [VIP Tn]	82.0%	42.6 nM	207 nM	101 nM	102	111.1	105.8	70.4%	67.4%	67.0%	57.3%	63.7%	60.1%	421 nM	656 nM	577 nM	74.75	186	78.02	
CC[C@H](C)[C@H](NC(=O)[C@H](CO)NC(=O)[C@H](CC(N)=O)NC(=O)[C@H](CC(C)C)NC(=O)[C@H](Cc1ccc(O)cc1)NC(=O)[C@H](CCCCN)NC(=O)[C@H](CCCCN)NC(=O)[C@@H](NC(=O)[C@H](C)NC(=O)[C@H](CCSC)NC(=O)[C@H](CCC(N)=O)NC(=O)[C@H](CCCCN)NC(=O)[C@H](CCCNC(=N)N)NC(=O)[C@H](CC(C)C)NC(=O)[C@H](CCCNC(=N)N)NC(=O)[C@@H](NC(=O)[C@H](Cc1ccc(O)cc1)NC(=O)[C@H](CC(N)=O)NC(=O)[C@H](CC(=O)O)NC(=O)[C@@H](NC(=O)[C@H](Cc1ccccc1)NC(=O)[C@@H](NC(=O)[C@H](C)NC(=O)[C@H](CC(=O)O)NC(=O)[C@H](CO)NC(=O)[C@@H](N)Cc1c[nH]cn1)C(C)C)[C@@H](C)O)[C@@H](C)O)C(C)C)C(=O)N[C@@H](CC(C)C)C(=O)N[C@@H](CC(N)=O)C(N)=O [VIP non-glycosylated]								79.5%	82.6%	101.8%	110.5%	97.7%	107.3%							
CC[C@H](C)[C@H](NC(=O)[C@H](CO)NC(=O)[C@H](CC(N)=O)NC(=O)[C@H](CC(C)C)NC(=O)[C@H](Cc1ccc(O)cc1)NC(=O)[C@H](CCCCN)NC(=O)[C@H](CCCCN)NC(=O)[C@@H](NC(=O)[C@H](C)NC(=O)[C@H](CCSC)NC(=O)[C@H](CCC(N)=O)NC(=O)[C@H](CCCCN)NC(=O)[C@H](CCCNC(=N)N)NC(=O)[C@H](CC(C)C)NC(=O)[C@H](CCCNC(=N)N)NC(=O)[C@@H](NC(=O)[C@H](Cc1ccc(O)cc1)NC(=O)[C@H](CC(N)=O)NC(=O)[C@H](CC(=O)O)NC(=O)[C@@H](NC(=O)[C@H](Cc1ccccc1)NC(=O)[C@@H](NC(=O)[C@H](C)NC(=O)[C@H](CC(=O)O)NC(=O)[C@H](CO)NC(=O)[C@@H](N)Cc1c[nH]cn1)C(C)C)[C@@H](C)O[C@H]1O[C@H](CO)[C@H](O)[C@H](O[C@@H]2O[C@H](CO)[C@H](O)[C@H](O)[C@H]2O)[C@H]1NC(C)=O)[C@@H](C)O)C(C)C)C(=O)N[C@@H](CC(C)C)C(=O)N[C@@H](CC(N)=O)C(N)=O [VIP T]		18.9 nM	88.7 nM	45.8 nM	95.97	106.4	107.3	72.7%	72.4%	74.8%	68.0%	58.9%	52.3%	202 nM	422 nM	718 nM	75.53	106.2	67.09	104.2%
CC[C@H](C)[C@H](NC(=O)[C@H](CO)NC(=O)[C@H](CC(N)=O)NC(=O)[C@H](CC(C)C)NC(=O)[C@H](Cc1ccc(O)cc1)NC(=O)[C@H](CCCCN)NC(=O)[C@H](CCCCN)NC(=O)[C@@H](NC(=O)[C@H](C)NC(=O)[C@H](CCSC)NC(=O)[C@H](CCC(N)=O)NC(=O)[C@H](CCCCN)NC(=O)[C@H](CCCNC(=N)N)NC(=O)[C@H](CC(C)C)NC(=O)[C@H](CCCNC(=N)N)NC(=O)[C@@H](NC(=O)[C@H](Cc1ccc(O)cc1)NC(=O)[C@H](CC(N)=O)NC(=O)[C@H](CC(=O)O)NC(=O)[C@@H](NC(=O)[C@H](Cc1ccccc1)NC(=O)[C@@H](NC(=O)[C@H](C)NC(=O)[C@H](CC(=O)O)NC(=O)[C@H](CO)NC(=O)[C@@H](N)Cc1c[nH]cn1)C(C)C)[C@@H](C)O)[C@@H](C)O)C(C)C)C(=O)N[C@@H](CC(C)C)C(=O)N[C@@H](CC(N)=O)C(N)=O [VIP, vasoactive intestinal polypeptide, reference compound]																	99.97	100	100	
